Data on 8 molecules can be found in article PMC10179937, “Cytotoxic Activity, Topoisomerase I Inhibition and In Silico Studies of New Sesquiterpene-aryl Ester Derivatives of (-) Drimenol” (Molecules, 2023).

Data set [1] concerns MCF-7 (breast adenocarcinoma). Put plainly: Sulforhodamine B in vitro growth inhibition assay, MCF-7. In kind it is cell-based, human. Conditions: for IC50: Homo sapiens, MCF7, sulforhodamine B assay, 72 h of treatment, IC50 ± SD; for Selectivity Index (SI) MCF-10/MCF-7: IC50 in non-cancerogenic cell line / IC50 in cancer cell line. The protocol: (§1) For this purpose, a colorimetric sulforhodamine B assay was performed to quantify the cytotoxic effect through their respective IC50 values. Each compound’s serial dilutions (12.5, 25, 50, and 100 µM) were evaluated in triplicate. In our study, the human cancer cell lines used were MCF-7 (breast adenocarcinoma); HT-29 (colorectal adenocarcinoma); PC-3 (prostate adenocarcinoma); and MCF-10 control cells (normal breast epithelium). For comparative purposes, the literature IC50 values of daunorubicin and 5-fluorouracil (5-FU), measured in the same cell lines and under the same experimental conditions, were included. Similarly, drimenol (1) was included for comparative purposes.
(§2) The sulforhodamine B assay was used. Briefly, the cells were set up at 5 × 10^3 cells per well of a 96-well microplate for 18 h. Cells were incubated at 37 °C in a humidified 5% CO2/95% air mixture and treated with the compounds at different concentrations for 72 h. At the end of drug exposure, cells were fixed with 50% trichloroacetic acid at 4 °C. After washing with distilled water, cells were stained with 0.1% sulforhodamine B, dissolved in 1% acetic acid (50 μL/well) for 30 min, and, subsequently, washed with 1% acetic acid to remove the unbound stain. The protein-bound stain was solubilized with 100 μL of 10 mM unbuffered Tris base, and the cell density was determined using a […] (wavelength 540 nm). Results are expressed as IC50 values (μM) ± SD.
(In general: Sulforhodamine B stains cellular protein and so reports cell mass.)

In data set [2] the test system is HT-29 (colorectal adenocarcinoma). Kind of data set: Sulforhodamine B in vitro growth inhibition assay, HT-29. In kind it is cell-based, human. Conditions: for IC50: Homo sapiens, HT-29, sulforhodamine B assay, 72 h of treatment, IC50 ± SD; for Selectivity Index (SI) MCF-10/HT-29: IC50 in non-cancerogenic cell line / IC50 in cancer cell line. The protocol:
as §1, §2

Data set [3] deals with PC-3 (prostate adenocarcinoma). Kind of data set: Sulforhodamine B in vitro growth inhibition assay, PC-3. The class given is cell-based, human. To be noted: for IC50: Homo sapiens, sulforhodamine B assay, 72 h of treatment, IC50 ± SD; for Selectivity Index (SI) MCF-10/PC-3: IC50 in non-cancerogenic cell line / IC50 in cancer cell line. The method, then:
as §1, §2

Data set [4] deals with MCF-10 control cells (normal breast epithelium). Kind of data set: Sulforhodamine B in vitro growth inhibition assay, MCF-10 control cells. In kind it is cell-based. To be noted: Homo sapiens, MCF10, 72 h of treatment, IC50 ± SD, non-tumoral cells. The protocol: as §1, §2
Data set [5] deals with T1, Human recombinant Topoisomerase I (Homo sapiens, UniProt P11387).
T1 construct: purchased Sigma-Aldrich
T1 sequence (P11387 1-765): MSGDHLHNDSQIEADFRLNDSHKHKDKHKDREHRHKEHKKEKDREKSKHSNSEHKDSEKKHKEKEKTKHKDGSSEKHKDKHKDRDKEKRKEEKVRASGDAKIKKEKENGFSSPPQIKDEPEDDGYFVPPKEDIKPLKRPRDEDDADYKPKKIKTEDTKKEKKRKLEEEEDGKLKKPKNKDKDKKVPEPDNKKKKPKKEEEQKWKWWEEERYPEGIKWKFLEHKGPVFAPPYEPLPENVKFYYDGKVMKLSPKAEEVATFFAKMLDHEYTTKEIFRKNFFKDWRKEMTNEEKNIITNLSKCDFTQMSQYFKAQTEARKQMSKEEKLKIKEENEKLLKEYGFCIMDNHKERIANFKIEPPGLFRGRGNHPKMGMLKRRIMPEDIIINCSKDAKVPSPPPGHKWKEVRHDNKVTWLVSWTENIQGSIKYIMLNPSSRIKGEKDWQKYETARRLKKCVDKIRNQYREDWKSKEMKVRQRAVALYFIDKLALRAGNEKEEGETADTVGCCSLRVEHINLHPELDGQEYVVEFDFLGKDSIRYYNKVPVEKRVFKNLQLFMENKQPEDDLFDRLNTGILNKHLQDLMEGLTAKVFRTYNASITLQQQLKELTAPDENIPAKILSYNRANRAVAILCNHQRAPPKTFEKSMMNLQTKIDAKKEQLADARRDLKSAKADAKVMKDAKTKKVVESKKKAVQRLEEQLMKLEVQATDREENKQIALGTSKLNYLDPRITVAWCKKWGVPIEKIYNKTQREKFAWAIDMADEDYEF
Kind of data set: Topoisomerase I activity, relaxation of supercoiled DNA (pEGFP-N1). The class given is biochemical. Conditions: 50 μM, agarose gel, result in words. The method, then: In this experiment, daunorubicin was used as control due to this compound being reported early as a TOPI inhibitor [31]. First, the optimal concentration of these compounds for the DNA relaxation assays was established.
Topoisomerase I activity was assayed by the relaxation of supercoiled DNA (pEGFP-N1) as the manufacturer’s instructions indicated. Human recombinant Topoisomerase I and buffer were from (Sigma-Aldrich). An amount of 2 μL of 10× topoisomerase I reaction buffer and 200 ng plasmid DNA and the indicated concentrations of compounds were incubated 30 min at 37 °C in Topo I buffer (500 mM Tris·HCl, pH 7.5, 1 M KCl, 10 mM dithiothreitol, 100 mM EDTA, 50 μg/mL acetylated bovine serum albumin (BSA)) in a total volume of 20 μL. The reaction was stopped by the addition of 5 μL of 5× loading dye (composition). Samples were electrophoresed on an 0.8% agarose gel without ethidium bromide for 2–3 h at 5 to 10 V/cm. The gel was stained with ethidium bromide and photographed with a UV transilluminator.

Data set [6] has as its system MCF-7 (breast adenocarcinoma). Conditions: cited from earlier work; for IC50: literature value, same experimental conditions.
Data set [7] deals with HT-29 (colorectal adenocarcinoma). Set-up: method as in PMID 25412045. Conditions: literature value, same experimental conditions; cited from earlier work.
The subject of data set [8] is PC-3 (prostate adenocarcinoma). To be noted: literature value, same experimental conditions; cited from earlier work.
Data set [9] deals with MCF-10 control cells (normal breast epithelium). To be noted: literature value, cited from earlier work.
Data set [10] can be described thus: Sulforhodamine B in vitro growth inhibition assay, MCF-7. To be noted: human; ratio of selectivity versus 5-FU; read-out: more selective than 5-FU in MCF-7. In kind it is cell-based, human. The method, then: as §1, §2
A short description of data set [11]: Sulforhodamine B in vitro growth inhibition assay, PC-3. The class given is cell-based, human. To be noted: human; ratio of selectivity versus 5-FU; read-out: more selective than 5-FU in PC-3. The method, then: as §1, §2
Data set [12] concerns caspases 3 and 7 on MCF-7 cells. Put plainly: Caspase-Glo 3/7 assay. In kind it is cell-based, human. Conditions: 50 μM, 24 h. The method, then: To determine the cell death type induced by the most promising aryl-drimane esters, we evaluated their capacity to induce apoptosis through the activation of caspases 3 and 7 on MCF-7 cells. For this purpose, 6a, 6e, 6f, 8c, 8f, and 8g were incubated for 24 h on MCF-7 cells at a concentration of 50 μM, close to the IC50 values for cytotoxicity in most compounds. […] In summary, these drimane derivatives induced apoptosis in the MCF-7 cell line, showing a potential antitumoral effect.
The activity of caspase 3/7 in treated MCF-7 cells was determined using a Caspase-Glo-3/7 Assay kit (Promega, UK—Cat. No G8090). The caspase-Glo 3/7 assay is a homogenous, luminescent assay that measures caspase-3 and -7 activities, both key-players in apoptosis. […] Luminescence was proportional to the amount of caspase present. MCF-7 cells (1 × 10^4 cells per well) were grown in a 96-well white plate and were allowed to adhere overnight. The cells were then treated for 24 h with the synthesized compounds (50 µM), with the inclusion of a blank as a control. After treatment, the Caspase-Glo® 3/7 was prepared according to the manufacturer’s guidelines. Briefly, 100 μL of Caspase-Glo 3/7 reagent was added to 100 μL of culture medium containing the cells previously treated in each well. The content was mixed gently by placing the plate on a shaker for 30 s, and the plate was incubated at room temperature in the dark for 1 h before luminescence was read on a luminometer (Berthold Sirius Single Tube Luminometer, Pforzheim, Germany). Fold change in caspase activity was obtained by first subtracting the luminescence value for the blank well from every other value, and then, expressing the average luminescence of each treatment as a fold change with respect to the average luminescence of the negative control.

Read-outs that look alike come from different tables or passages of the source.

For `COC(=O)c1c(C)cc(OC(=O)C2=C(C)CCC3C(C)(C)CCC[C@]23C)c(C)c1O` (stereo partly drawn) [6d, 3-Hydroxy-4-(methoxycarbonyl)-2,5-dimethylphenyl-(8aS)-2,5,5,8a-tetramethyl-3,4,4a,5,6,7,8,8a-octahydronaphthalene-1-carboxylate], the melting point was 128 °C. Moreover, the IC50 in [1] was > 100 µM. The IC50 in data set [2] is > 100 µM. Besides, in [3], the IC50 is > 100 µM. For the same molecule, in [4], the IC50 was > 100 µM.

Turning to `COC(=O)c1c(C)cc(OC(=O)C2=C(C)CCC3C(C)(C)CCC[C@]23C)cc1O` (stereo partly drawn) [6c, 3-Hydroxy-4-(methoxycarbonyl)-5-methylphenyl-(8aS)-2,5,5,8a-tetramethyl-3,4,4a,5,6,7,8,8a-octahydronaphthalene-1-carboxylate], the melting point came to 124 °C. For the same molecule, the IC50 in data set [1] is > 100 µM. Also, the IC50 in data set [2] was > 100 µM. In addition, in data set [3], the IC50 was > 100 µM. The IC50 in [4] is > 100 µM.

Regarding `COc1cccc2c1C(=O)c1c(O)c3c(c(O)c1C2=O)C[C@@](O)(C(C)=O)C[C@@H]3O[C@H]1C[C@H](N)[C@H](O)[C@H](C)O1` [Daunorubicin, reference compound], in data set [1], the “Selectivity Index (SI) MCF-10/MCF-7” value was found to be 28. The “Selectivity Index (SI) MCF-10/HT-29” value in [2] is on record as 0.6. In addition, in data set [3], the “Selectivity Index (SI) MCF-10/PC-3” value is given as 23. For the same molecule, in [5], the “inhibition of TOP1-induced DNA relaxation” value is “modified the TOP1-induced DNA relaxation in a minor way than compounds 6a and 8c”. Also, the IC50 in [6] is 0.33 ± 0.02 µM; in [7], 15.1 ± 0.5 µM; in [8], 0.41 ± 0.04 µM; in [9] (same experimental conditions), 9.32 ± 1.01 µM.

Turning to `O=c1[nH]cc(F)c(=O)[nH]1` [5-FU, 5-fluorouracil], in data set [1], the “Selectivity Index (SI) MCF-10/MCF-7” value worked out at 0.02. Further, in data set [2], the “Selectivity Index (SI) MCF-10/HT-29” value is reported as 0.2. Further, in data set [3], the “Selectivity Index (SI) MCF-10/PC-3” value is recorded as 0.03. The IC50 in data set [6] is 22.3 ± 0.2 µM; in data set [7] it was 2.9 ± 0.7 µM; in data set [8], 16.4 ± 0.6 µM; in data set [9], < 0.5 µM.

In turn, `COc1cc(C(=O)OC[C@H]2C(C)=CCC3C(C)(C)CCC[C@@]32C)cc(OC)c1O` (stereo partly drawn) [8d, ((1S,8aS)-2,5,5,8a-tetramethyl-1,4,4a,5,6,7,8,8a-octahydronaphthalen-1-yl)methyl-4-hydroxy-3,5-dimethoxybenzoate] registered a melting point of 105 °C. In data set [1], the IC50 was determined as 18.4 ± 0.5 µM and the “Selectivity Index (SI) MCF-10/MCF-7” value was 0.9. Also, in data set [2], the IC50 is 44.7 ± 6.7 µM and the “Selectivity Index (SI) MCF-10/HT-29” value was 0.4. In data set [3], the midpoint of inhibition, the IC50, lay at 33.3 ± 2.9 µM and the “Selectivity Index (SI) MCF-10/PC-3” value came out at 0.5. Also, the IC50 in data set [4] is 16.5 ± 0.5 µM.

On to `CC1=C(C(=O)Oc2cc(C)cc(O)c2)[C@@]2(C)CCCC(C)(C)C2CC1` (stereo partly drawn) [6a, 3-Hydroxy-5-methylphenyl-(8aS)-2,5,5,8a-tetramethyl-3,4,4a,5,6,7,8,8a-octahydronaphthalene-1-carboxylate], for which the selectivity ratio at 72 h amounted to 100 in data set [10] and 20 in data set [11]. The IC50 in data set [1] worked out at 33.7 ± 1.3 µM; in data set [2], 56.9 ± 4 µM; in data set [3], 85.5 ± 7.1 µM; in data set [4] it was 67.2 ± 6.3 µM. Besides, the “Selectivity Index (SI) MCF-10/MCF-7” value in [1] was 2.0. Moreover, in data set [2], the “Selectivity Index (SI) MCF-10/HT-29” value is on record as 1.2. Further, the “Selectivity Index (SI) MCF-10/PC-3” value in data set [3] is 0.8. Besides, the “caspases-3/7 activity over the control” value in [12] was “two-fold”. The “inhibition of TOP1-induced DNA relaxation” value in data set [5] is “more prominent”.

Turning to `CC1=CCC2C(C)(C)CCCC2(C)C1CO` (stereo not shown) [Drimenol], the IC50 in [6] and in [8] was > 100 µM throughout. Besides, in [6] (two cell lines, ref Montenegro et al.), the “cytotoxicity” value was “inactive”.

In the case of `COc1ccc(C(=O)OC[C@H]2C(C)=CCC3C(C)(C)CCC[C@@]32C)c(OC)c1OC` (stereo partly drawn) [8f, ((1S,8aS)-2,5,5,8a-tetramethyl-1,4,4a,5,6,7,8,8a-octahydronaphthalen-1-yl)methyl-2,3,4-trimethoxybenzoate], the IC50 in data set [1] amounted to 6.2 ± 0.5 µM; in data set [2], 26.2 ± 5.4 µM; in data set [3], 7.1 ± 1.1 µM; in data set [4], 6.8 ± 0.9 µM. Moreover, the “caspases-3/7 activity over the control” value in data set [12] was determined as 3.5 fold.

The term IC50 denotes the point on the concentration scale where inhibition reaches its midpoint. For orientation: melting point means the temperature of the solid-liquid transition.
